Target: T1, Progesterone receptor (Oryctolagus cuniculus, UniProt P06186)
T1 sequence (P06186 whole entry): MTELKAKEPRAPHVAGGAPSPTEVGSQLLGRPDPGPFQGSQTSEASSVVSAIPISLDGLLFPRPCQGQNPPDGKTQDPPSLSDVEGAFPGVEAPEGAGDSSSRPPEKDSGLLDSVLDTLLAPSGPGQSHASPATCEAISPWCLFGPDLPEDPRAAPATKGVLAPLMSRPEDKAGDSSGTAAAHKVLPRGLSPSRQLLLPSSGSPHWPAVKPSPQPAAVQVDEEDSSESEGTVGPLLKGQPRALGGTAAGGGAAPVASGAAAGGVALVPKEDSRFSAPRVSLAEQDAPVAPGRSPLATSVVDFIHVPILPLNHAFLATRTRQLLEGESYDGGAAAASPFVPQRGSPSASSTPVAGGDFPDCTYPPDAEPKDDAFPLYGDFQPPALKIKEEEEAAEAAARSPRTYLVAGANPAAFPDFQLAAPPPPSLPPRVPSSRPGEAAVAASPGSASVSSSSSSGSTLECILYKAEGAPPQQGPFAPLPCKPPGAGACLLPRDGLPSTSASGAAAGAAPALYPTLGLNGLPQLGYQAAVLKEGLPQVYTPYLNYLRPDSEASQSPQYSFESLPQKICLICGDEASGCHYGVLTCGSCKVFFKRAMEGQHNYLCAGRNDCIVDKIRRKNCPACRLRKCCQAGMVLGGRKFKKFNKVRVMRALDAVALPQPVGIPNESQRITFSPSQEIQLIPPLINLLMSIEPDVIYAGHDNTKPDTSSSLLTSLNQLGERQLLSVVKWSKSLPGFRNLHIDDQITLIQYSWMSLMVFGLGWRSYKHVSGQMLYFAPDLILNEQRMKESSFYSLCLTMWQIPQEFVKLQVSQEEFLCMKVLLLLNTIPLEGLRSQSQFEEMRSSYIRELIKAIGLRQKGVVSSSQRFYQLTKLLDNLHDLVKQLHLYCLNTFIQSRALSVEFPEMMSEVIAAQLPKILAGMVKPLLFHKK
Assay: Inhibition of [3H]R5020 binding to rabbit uterine progesterone receptor

Row | Structure (SMILES) | Ki
1 | CC12CCC3C4CCC(=O)C=C4CCC3C1CCC2(O)/C=C\I (centres undefined) | 4.26 nM
2 | C=C(I)C1(O)CCC2C3CCC4=CC(=O)CCC4C3CCC21C (centres undefined) | 80.1 nM
3 | CC12CCC3C4CCC(=O)C=C4CCC3C1CCC2(O)/C=C/I (centres undefined) | 1.81 nM
4 | CC12CCC3C4CCC(=O)C=C4CCC3C1C[C@@H](I)C2O (some centres undefined) | 39.8 nM
